Experimental data: patent publication US6083920A, “Compositions for modulating intracellular inositol trisphosphate concentration” (priority 1996, dated 2000)
“Also recorded” adds a separate entry of the source.

Experiments:
hippocampal neurons = assay: Histological analysis of brain 7 days after ICV infusion (cresyl violet); type: in vivo, male F344 rats; conditions: for HISTOLOGICAL CHANGES: rat
Protocol: Before administering various compounds, the animals were anesthetized with sodium pentobarbital (50 mg/kg, i.p.) and positioned in a sterotaxic instrument. A 26 gauge cannula was inserted into the cerebral ventricle at the following co-ordinates: 1.0 mm posterior to bregma, 1.5 mm lateral to the midline, and 4.0 mm below the dorsal surface of the neocortex. Cannulas were capped and fixed in place with dental cement. One week after cannulation, 10 μl of each of the treatment drugs was infused, ICV (i.e. into the ventricals of the brain), via a micropump at a rate of 10 μl/min. For this procedure, the animals were lightly restrained and unanesthetized. Following administration of the compound, the infusion cannula remained in position for one minute, after which the permanent in situ cannula was capped.
Seven days after the compounds were administered, animals were sacrificed by transcardial perfusion with neutralized, buffered 10% formalin-saline. Their brains were removed, post-fixed overnight in 10% formalin-saline, and sectioned along the coronal plane (into 50 μm thick sections) on a freezing microtome. The sections were stained with cresyl violet to determine the extent of cellular destruction. […]
Given that high concentrations of metabotropic receptors are located in the hippocampus, and that the hippocampus is particularly vulnerable to the effects of a variety of insults including ischemia and hypoxia, this region was examined for evidence of neuronal degeneration due to glutamate excitotoxicity.

[1] = test system: calcium ion signalling in cortical neurons; assay: Metabotropic receptor function: calcium ion signalling (fura 2) in intact cortical neurons; type: cell-based, chick; conditions: neurons loaded to 150±20 pmoles per mg protein; 10 μM glutamate agonist 30 minutes
Protocol: Metabotropic receptor function was examined in intact neurons by assaying lysosphingolipid modulation of calcium ion signalling. Approximately 1×10^6 cortical neurons were cultured on rectangular L-polylysine-coated coverslips and loaded with lysocerebroside or lysosphingomyelin to a level of 150±20 pmoles per mg protein. The neurons were returned to complete Ham's high glucose medium/DMEM (1:1, vol:vol) and infiltrated with 5 μM fura 2/AM (Molecular Probes, Eugene, Oreg.). Fura 2 is a calcium chelator whose fluorescence absorbance shifts to shorter wavelength upon calcium ion binding is measurable in intact cells. A change in intraneuronal calcium ion concentration was monitored as a change in the fluorescence spectrum.
The neurons were exposed to 10 μM glutamate agonist (for example, ibotenate) for 30 minutes at 37° C. The coverslips were then transferred to quartz cuvettes in medium containing 250 μM sulfinpyrazone to prevent fura 2/AM diffusion. Fluorescence ratios were recorded in a Perkin-Elmer LS-5 Fluorescence Spectrometer thermostatted at 37° C. at excitation wavelengths of 340 and 380 nm, a nd emission measurement at 500 nm. Calcium ion signalling in agonist-stimulated neurons was 3.0±0.2 arbitrary units for ibotenate-exposed neurons.

astrocytes = conditions: cited from earlier work
cultured neurons = assay: Lysosphingolipid content of cultured neurons by NBDZF fluorescence tagging; type: cell-based, chick; conditions: for lysosphingolipid content, 0 hours of incubation / lysosphingolipid content, 0.5 hours of incubation / lysosphingolipid content, 1.0 hours of incubation / lysosphingolipid content, 2.0 hours of incubation / lysosphingolipid content, 3.0 hours of incubation: Intact neurons, 10 μmolar exposure; for content of sphingosine in the neurons following exposure: exposure to 50 μM lysosphingolipid, 1 hour
Source text: Agonist-binding to metabotropic receptors influences the levels of lysosphingolipid in neuronal membranes. However, there is no convenient methodology available for the measurement of lysosphingolipid content in cultured neurons. As a result, a sensitive method of fluorometric tracing has been devised and is described herein. The measurement of lysosphingolipid content in cultured neurons is based on the stable fluorescence-tagging procedure using 4-fluoro, 7-nitrobenzofuran (NBDZF) described by Nozowa et al J. Neurochem. 59:607-609, 1992). The procedure was applied to: resting neurons; neurons exposed to 100 μM metabotropic receptor agonist for 1 hour; resting neurons exogenously enriched in lysosphingolipids; and neurons exogenously enriched in lysosphingolipids and exposed to metabotropic receptor agonist for 1 hour. The neurons were scraped in batches of 107 (1 Petri dish, approximately 8 cm in diameter, is equivalent to 2 mg membrane protein) and subjected to anaylsis.
Total lipids were removed from the neuron samples by repeated extraction with chloroforn:methanol (2:1, vol:vol). The lysosphingolipids were separated from total neuronal lipid in 90±5% recovery yield (n=10) by the stepped chromatographic procedure of Van Veldhoven et al. (Anal. Biochem. 183:177-189, 1989). The recovered lysosphingolipids were stably tagged with NBDZF by the rapid procedure of Nozowa et al. (supra). The fluorescence tagged neuronal lysosphingolipids were separated in parallel with reference standards NBDZF-Sph, NBDZF-Psy, and NBDZF-Lsm on high performance silica gel thin layer chromatography plates with acetonitrile:H2 O (10:0.5, vol:vol). The highly fluorescent, well separated bands were scraped from the plate. The fluorescence tagged lysosphingolipids are eluted from the scraped silica gel with methanol:1 N HCl (1:0.02, vol:vol). The fluorescence tagged lysosphingolipid eluates were quantitated against reference standards by fluorescence measurement in a Perkin-Elmer LS-5 Fluorescence Spectrometer.
Sphingolipid content of neurons exposed to sphingosine, lysocerebroside, and lysosphingomyelin was examined as follows. A Petri dish containing approximately 107 neurons was incubated with 5 μCi [^3 H]myo-Ins in 3 ml DMEM overnight to prelabel the phosphoinositide InsP3 may contain. The neurons were washed with PBS and 3 ml of PBS containing 4.5 g/l glucose was added. Preparations of sphingosine, lysocerebroside, lysosphingomyelin (Sigma Chemical Co., St. Louis, Mo.) and combinations of each were prepared as the hydrochloride salt dissolved in PBS. The lysosphingolipids were added to the Petri dishes to produce a concentration ranging from 0-150 μM. […] Trypsinization removes non-specifically bound lysosphingolipids that may adhere to extracellular plasma membrane protein domain s. Non-specific adherence between cationic micelles of lysosphingolipids and the neuronal glycocatyx avoided by performing the experiments with lysosphingolipid concentrations below the critical micelle concentration. Neurons were analyzed for lysosphingolipid content as described above.

| SMILES | HISTOLOGICAL CHANGES (hippocampal neurons; Quisqualate 100 nmoles ICV) | HISTOLOGICAL CHANGES (hippocampal neurons; Quisqualate 150 nmoles ICV) | HISTOLOGICAL CHANGES (hippocampal neurons; Quisqualate 225 nmoles ICV, seven days after application) | HISTOLOGICAL CHANGES (hippocampal neurons; Quisqualate 225 nmoles ICV, seven days after application, listed as quisqualate) | HISTOLOGICAL CHANGES (hippocampal neurons; Quisqualate 250 nmoles ICV, seven days after application, listed as quisqualate) | HISTOLOGICAL CHANGES (hippocampal neurons; Quisqualate 500 μmoles ICV) | agonist-elicited calcium signalling in lysosphingolipid-loaded neurons [1] | InsP3 production in astrocytes (astrocytes) | lysosphingolipid content, 0 hours of incubation (cultured neurons) | lysosphingolipid content, 0.5 hours of incubation (cultured neurons) | lysosphingolipid content, 1.0 hours of incubation (cultured neurons) | lysosphingolipid content, 2.0 hours of incubation (cultured neurons) | lysosphingolipid content, 3.0 hours of incubation (cultured neurons) | content of sphingosine in the neurons following exposure (cultured neurons) [pmoles/mg protein] | neuronal loss (CA1 pyramidal neurons, hippocampus) caused by quisqualate (hippocampal neurons; pretreatment with psychosine 125 nmoles, quisqualate 225 nmoles ICV, 7 days) |
| --- | --- | --- | --- | --- | --- | --- | --- | --- | --- | --- | --- | --- | --- | --- | --- |
| N[C@@H](Cn1oc(=O)[nH]c1=O)C(=O)O [Quisqualate, quisqualate] | none observed | none observed | loss of CA1 | severe loss of neurons in the hippocampus; also recorded: considerable loss of CA1 pyramidal neurons in the hippocampus | severe loss of neurons in the hippocampus | loss of neurons | – | – | – | – | – | – | – | – | – |
| CCCCCCCCCCCCC/C=C/[C@@H](O)[C@@H](N)COP(=O)([O-])OCC[N+](C)(C)C [lysosphingomyelin, sphingosyl phosphoryicholine] | – | – | – | – | – | – | no calcium signalling measurably over controls | – | – | – | – | – | – | – | – |
| CCCCCCCCCCCCC/C=C/[C@@H](O)[C@@H](N)CO [sphingosine] | – | – | – | – | – | – | – | enhanced | 85 ± 15 pmoles lysosphingolipid/mg pla | 85 ± 20 pmoles lysosphingolipid/mg pla | 110 ± 15 pmoles lysosphingolipid/mg pla | 105 ± 5 pmoles lysosphingolipid/mg pla | 115 ± 15 pmoles lysosphingolipid/mg pla | 430±70 | – |
| CCCCCCCCCCCCC/C=C/[C@@H](O)[C@@H](N)CO[C@@H]1O[C@H](CO)[C@H](O)[C@H](O)[C@H]1O [psychosine, lysocerebroside] | – | – | – | – | – | – | no calcium signalling measurably over controls | inhibited | 25 ± 5 pmoles lysosphingolipid/mg pla | 35 ± 15 pmoles lysosphingolipid/mg pla | 45 ± 10 pmoles lysosphingolipid/mg pla | 80 ± 5 pmoles lysosphingolipid/mg pla | 80 ± 5 pmoles lysosphingolipid/mg pla | 220±45 | prevents the neuronal loss caused by quisqualate |
